How the values were obtained:
[1] = tested on: Gibberella fujikuroi ("Bakanae" disease of rice); test: Test for rice seed-disinfecting effect; format: in vivo; conditions: Fusarium fujikuroi, 504 h, seed immersion 25° C. 24 hours, three weeks after treatment, read-out: Controlling effect (control of disease), "Bakanae" disease of rice
Method: 2-1 Test for rice seed-disinfecting effect
Unhulled rice infected with Gibberella fujikuroi ("Bakanae" disease of rice) was immersed in a test compound adjusted to 1000 ppm at 25° C. for 24 hours. Water was lightly swished off the seed, which was then sowed and germinated for two days. Three weeks after treatment with the solution containing the compound, the rate of the infected seedlings was examined, and the control of disease was calculated by comparison with that of the untreated plot. The control of disease was shown as a controlling effect on the basis of the following standard.

[2] = tested on: Candida albicans IFO 1270; test: In vitro antimycotic activity on Candida albicans; format: cell-based; conditions: IFO1270, 10 (ppm), SGB, 37° C., 48 hours, turbidity at 650 nm, read-out: Antimycotic activity (growth inhibitory rate), C.albicans
Method: 3-1 In vitro antimycotic activity on Candida albicans
Candida albicans IFO 1270 pre-cultured on a Sabouraud's glucose agar (SGA) plate medium at 37° C. […] was suspended in a sterilized physiological salt solution. The number of fungi in the resulting suspension was counted with a globulimeter, and adjusted so as to be 1×10^7 cell/ml with a sterilized physiological salt solution. This solution was used as an inoculum solution. Thereafter, 0.1 ml of this solution and 0.1 ml of a dimethyl sulfoxide (DMSO) solution of the test compound were added to 9.8 ml of Sabouraud's glucose broth (SGB), and shake-cultured at 37° C. for 48 hours. After culture, the medium turbidity was measured at 650 nm, and the growth-inhibitory rate of the fungus was calculated according to the following equation.
Growth inhibitory rate (%)=(1-W/Y)×100
Y: Medium turbidity of DMSO control group
W: Medium turbidity of test compound group
From this inhibitory rate, the antimycotic activity was shown by the symbols A to D. The test results of the test compounds are shown in Table 4.

[3] = tested on: Pseudoperonospora cubensis; test: Test for controlling effect on downy mildew of cucumber; format: in vivo; conditions: 168 h, 200 ppm spray, one day before inoculation, cucumber 2-leaf stage, read-out: Controlling effect (control of disease), Downy mildew of cucumber
Method: 2-2 Test for controlling effect on downy mildew of cucumber (Pseudoperonospora cubensis) A test compound adjusted to 200 ppm was sprayed onto cucumber at the 2-leaf stage cultivated in pots. After one day, the cucumber was inoculated by spraying the zoospore suspension of Pseudoperonospora cubensis. After inoculation, the cucumber was placed in a 25° C.-humid room for 1 day and then in a greenhouse for 6 days. Thus, the cucumber was made to be infected with downy mildew. The control of disease of the test compound is calculated by comparing the degree of infection of each leaf with that in the untreated plot. The control of disease is shown as a controlling effect in the same manner as in Test Example 2-1.

[4] = tested on: Trichophyton mentagrophytes IFO 5810; test: In vitro antimicrobial activity on Trichophyton mentagrophytes; format: cell-based; set-up: key: A: Fungus is not observed at all with the naked eye.; B: Presence of fungus is slightly observed on shaking the test tube.; C: Fungus of about less than one-fourth that of the DMSO control group is observed with the naked eye.; Fungus of about less than half that of the DMSO control group is observed with the naked eye; conditions: 10 (ppm); SGB, 27° C., 7 days
Method: 3-3 In vitro antimicrobial activity on Trichophyton mentagrophytes To Trichophyton mentagrophytes IFO 5810 precultured at 27° C. for 2 to 3 weeks on a Sabouraud's glucose agar (SGA) slant medium was added a sterilized physiological salt solution containing 0.1% (W/V) Tween 80. After conidia were made free from the solution, the solution was filtered through a sterilized two-sheet gauze to remove the mycelium mass. The number of the conidia in the resulting suspension was counted with a globulimeter and adjusted so as to be 1×10^6 conidia/ml with a sterilized physiological salt solution containing 0.1%(W/V) Tween 80. This solution was used as an inoculum solution. Thereafter, 0.1 ml of this solution and 0.1 ml of the dimethyl sulfoxide (DMSO) solution of the test compound were added to 9.8 ml of Sabouraud's glucose broth (SGB), and shake-cultured at 27° C. for 7 days.

Rhizoctonia solani = test: Test for controlling effect on sheath blight of rice; format: in vivo; conditions: 120 h, 200 ppm spray, 24 hours after inoculation, rice 4-leaf stage, five days after inoculation, read-out: Controlling effect (control of disease), Sheath blight of rice
Method: 2-3 Test for controlling effect on sheath blight of rice (Rhizoctonia solani) Rice seedlings at the 4-leaf stage were inoculated with the mycelium of sheath blight of rice (Rhizoctonia solani). After 24 hours, a test medicine solution adjusted to 200 ppm was sprayed onto the seedlings. After air-drying, the seedlings were placed in a humid room for 24 hours where the temperature was kept at 28° C. and humidity was kept at 98%. Thereafter, the seedlings were transferred to a greenhouse, and five days after inoculation, the degree of infected area was examined. The control of disease was calculated by comparison with that in the untreated plot. The control of disease is shown as a controlling effect in the same manner as in Test Example 2-1.

[5] = tested on: Aspergillus fumigatus TIMM 0063; test: In vitro antimycotic activity on Aspergillus fumigatus; format: cell-based; conditions: TIMM0063, 10 (ppm), Casitone agar, 37° C., 48 hours, read-out: Antimycotic activity (growth inhibitory rate), A.fumigatus
Method: 3-2 In vitro antimycotic activity on Aspergillus fumigatus.
To Aspergillus fumigatus TIMM 0063 precultured at 37° C. for 48 hours on a potato dextrose agar (PDA) slant medium was added a sterilized physiological salt solution containing 0.1%(W/V) Tween 80. After conidia were made free from the solution, the solution was filtered through a sterilized two-sheet gauze to remove the mycelium mass. The number of the conidia in the resulting suspension was counted with a globulimeter and adjusted so as to be 1×10^5 conidia/ml with a sterilized physiological salt solution containing 0.1%(W/V) Tween 80. This solution was used as an inoculum solution. Casitone agar plate medium containing the DMSO solution of the test compound in a rate of 1% (V/V) was inoculated with the inoculum solution at four places thereof with a microplanter, and cultured with the medium allowed to stand at 37° C. for 48 hours. After culture, the diameter of the mycelium disks cultivated at the four inoculated parts was measured, and its mean value was obtained. The growth inhibitory rate was calculated according to the following equation, and the antimycotic activity was shown in the same manner as in Test Example 3-1.
Growth inhibitory rate (%)=(1-W'/Y')×100
Y': Diameter of mycelium disk of DMSO control group
W': Diameter of mycelium disk of test compound group

Aspergillus niger = test: Test for wood rotting-preventing effect (mycelium growth inhibition on malt extract agar); format: cell-based; conditions: 28° C.±2° C., 2 to 10 days, read-out: Rotting preventing effect (mycelium growth-inhibitory rate), ASN
Method: (§1) The following fungi were cultured in agar media, respectively, and mycelial disks on the media were stamped out together with the agar using a cork borer of 4 mm in diameter. The resulting mycelial disks on agar were used as an inoculum. Each test compound of 50 ppm was added to a malt extract agar medium and added in parts to Petri dishes. The above prepared inoculum was put on the Petri dishes and cultured at 28° C.±2° C. Two to ten days after inoculation, the diameter of the mycelial disk of each fungus was measured, and the mycelium growth-inhibitory rate was obtained according to the following equation. [formula] The mycelium growth-inhibitory rate (%) is indicated by the following symbols as a fungicidal effect on each fungus, and the results are shown in Table 2. | ASN: Aspergillus niger

Tyromyces palustris = test: as above; format: cell-based; conditions: 28° C.±2° C., 2 to 10 days, read-out: Rotting preventing effect (mycelium growth-inhibitory rate), TYP
Method: as §1, with “TYP: Tyromyces palustris” for “ASN: Aspergillus niger”

Trichoderma viride = test: as above; format: cell-based; conditions: 28° C.±2° C., 2 to 10 days, read-out: Rotting preventing effect (mycelium growth-inhibitory rate), TRV
Method: as §1, with “TRV: Trichoderma viride” for “ASN: Aspergillus niger”

Rhizopus nigricans = test: as above; format: cell-based; conditions: Rhizopus stolonifer, 28° C.±2° C., 2 to 10 days, read-out: Rotting preventing effect (mycelium growth-inhibitory rate), RHN
Method: as §1, with “RHN: Rhizopus nigricans” for “ASN: Aspergillus niger”

Row | Structure (SMILES) | pest or weed control at 1000 ppm [1] [%] | inhibition of growth at 10 µg/mL [2] [%] | pest or weed control at 200 ppm [3] [%] | Antimycotic activity (degree of growth, naked eye), T.mentagrophytes [4] | pest or weed control at 200 ppm (Rhizoctonia solani) [%] | inhibition of growth at 10 µg/mL [5] [%] | inhibition at 50 ppm (Aspergillus niger) [%] | inhibition at 50 ppm (Tyromyces palustris) [%] | inhibition at 50 ppm (Trichoderma viride) [%] | inhibition at 50 ppm (Rhizopus nigricans) [%]
1 | CSc1snc(SCOCC#CI)c1C#N [Compound 128, 3-(3-iodo-2-propynyloxymethylthio)-4-cyano-5-methylthioisothiazole] | 80 to 94 | 100 | 95 to 100 | A | 60 to 79 | 100 |  |  |  | 
2 | N#Cc1c(OC(F)F)nsc1OCC#CI [Compound 50] | 95 to 100 | 100 | 95 to 100 | A | 95 to 100 | 100 |  |  |  | 
3 | CN1CCN(c2snc(OCC#CI)c2C#N)CC1 [Compound 36] |  | 100 |  | A |  | 100 | 80 to 94 | 95 to 100 | 95 to 100 | 80 to 94
4 | COc1nsc(SC(C)OCC#CI)c1C#N (stereo not drawn) [Compound 125] | 95 to 100 | 100 | 95 to 100 | A | 95 to 100 | 100 |  |  |  | 
5 | CC(C)Oc1nsc(OCCC#CI)c1C#N [Compound 83] |  | 100 |  | A |  | 100 |  |  |  | 
6 | N#CCOc1nsc(SCOCC#CI)c1C#N [Compound 63] | 95 to 100 | 100 | 95 to 100 | A | 80 to 94 | 100 |  |  |  | 
7 | N#Cc1c(SC(F)F)nsc1SCOCC#CI [Compound 138] |  | 100 |  | A |  | 100 | 95 to 100 | 95 to 100 | 95 to 100 | 95 to 100
8 | CCOCCSc1snc(OCC#CI)c1C#N [Compound 16] |  | 100 |  | A |  | 100 | 80 to 94 | 95 to 100 | 95 to 100 | 80 to 94
9 | CCOc1snc(OCC#CI)c1C#N [Compound 22] |  | 100 |  | A |  | 100 | 95 to 100 | 95 to 100 | 95 to 100 | 95 to 100
10 | CC(C#CI)OCOc1nsc(SC(F)F)c1C#N (stereo not drawn) [Compound 111] |  | 100 |  | A |  | 100 | 95 to 100 | 95 to 100 | 95 to 100 | 95 to 100
11 | CC(C)Sc1snc(OCC#CI)c1C#N [Compound 4] | 95 to 100 | 100 | 95 to 100 | A | 80 to 94 | 100 |  |  |  | 
12 | C=CCOc1nsc(SCOCC#CI)c1C#N [Compound 57] |  | 100 |  | A |  | 100 | 95 to 100 | 95 to 100 | 95 to 100 | 95 to 100

Reference: patent US5578622A, “Isothiazole derivatives and their uses” (Asamura Patent Office, priority 1994, dated 1996)
